The values that follow come from paper PMC8290497, “Taxifolin, an Inhibitor of Sortase A, Interferes With the Adhesion of Methicillin-Resistant Staphylococcal aureus” (Frontiers in Microbiology, 2021).

By Kd is commonly meant the free concentration of one partner at which half of the binding sites on the other are occupied at equilibrium, for simple one-to-one binding.

One data set concerns HEK293 cells. In words: CCK-8 cytotoxicity assay, HEK293. Format: cell-based. The procedure: Cytotoxicity was determined using a cell counting kit-8 assay (CCK-8, US EVERBRIGHT, Suzhou, China), as described previously ([Xiao et al., 2018]). HEK293 or HepG2 cells were seeded in 96-well plates (Corning, United States) at a density of 5 × 10^4 cells/well, then incubated at 37°C in an atmosphere containing 5% CO2 for 24 h. The culture medium was then exchanged with fresh medium containing different concentrations of Tax (0–200 μM) or vehicle and incubated for an additional 24 h. CCK-8 solution (10 μL) was carefully added then incubated for 4 h in an incubator at 37°C. The OD value at 450 nm was measured to calculate cell viability.
FIGURE 2 Growth curve and cytotoxicity. (A) Growth curves of S. aureus USA300 and the ΔsrtA group with different concentrations of Tax. (B) Growth rate of S. aureus USA300 and S. aureus treated with Tax (25 μM). (C) Percent cell viability of HEK293 (purple) and HepG2 (blue) cells were measured using a CCK-8 assay after incubation with Tax for 24 h.
In general terms: Tetrazolium assays rely on reduction of a dye to a coloured formazan, in cell work by metabolically active cells.

A further data set addresses T1, Q172A-SrtA mutant (Staphylococcus aureus, UniProt Q2FV99, Q172A).
T1 construct: 6xHis; made in house; host or cells: E. coli BL21 (DE3), mutated pET28a-SrtA
In words: Fluorescence quenching assay, Q172A-SrtA. Format: binding. The procedure:
(§1) Site-directed mutagenesis for D170A-SrtA and Q172A-SrtA was performed based on plasmid pET28a-SrtA using a multi-site mutagenesis kit (Transgen, Beijing, China) and the desired mutation was verified via DNA sequencing by Sangon Biotech (Shanghai, China). Subsequently, recombinant SrtA and the SrtA mutant proteins (D170A and Q172A) were expressed and purified in accordance with a previously published procedure ([Zhulenkovs et al., 2014]). Briefly, bacteria were cultured until an OD600 value of 0.8 was achieved, after which 0.5 mM isopropyl-β-D-thiogalactopyranoside (IPTG) was added to induce recombination of SrtA at 16°C overnight. Because the recombinant protein had 6 × His tags, it was purified using a nickel-nitrilotriacetic acid (Ni-NTA) purification system. Imidazole (10 mM) was used to wash away excess protein, while 400 mM imidazole was employed to elute the target protein.
(§2) Molecular modeling studies highlight the benefits of performing site-directed mutagenesis studies. Therefore, fluorescence quenching experiments were utilized to determine the binding affinity of Tax with SrtA and SrtA mutants (D170A, Q172A).

Data set [1] relates to S. aureus biofilm formation. In words: Biofilm formation assay (crystal violet). Format: cell-based, Staphylococcus aureus. As to conditions: coculture with 200 μM Tax, 24 h. The procedure:
Bacterial cultures grown overnight were diluted 1:100 in BHI medium supplemented with 3% NaCl and 0.5% glucose. A 200 μL aliquot of each diluted culture was added to separate wells of a 96-well plate, to which different concentrations of Tax (25–200 μM) had been added, then incubated at 37°C for 24 h. Subsequently, the culture medium was replaced with crystal violet to stain the biofilm for 15 min. The wells were then washed thoroughly with sterile deionized PBS three times. The crystal violet stain in each well was decolorized with 200 μL absolute ethanol and then the OD595 value was recorded using a microplate reader.
(§3) FIGURE 3 Effect of SrtA inhibitor on virulence-related phenotypes in S. aureus Newman strain. (A) Impact of Tax on the ability of S. aureus to adhere to fibrinogen. (B) Biofilm formation of S. aureus in the presence of different concentrations of Tax. (C) Mature biofilms of S. aureus in the presence of different concentrations of Tax. The ΔsrtA group represented the positive control. (D) Tax affects internalization of S. aureus into A549 cells. […] The number of viable S. aureus in the cells was quantified by serial dilution on TSA agar plates. […] Error bars represent means ± SD of three replicates. *P < 0.05, **P < 0.01, ***P < 0.001 calculated with a two-tailed Student’s t-test.

In the next data set the target is T2, D170A-SrtA mutant (Staphylococcus aureus, UniProt Q2FV99, D170A).
T2 construct: 6xHis; made in house; host or cells: E. coli BL21 (DE3), mutated pET28a-SrtA
In words: Fluorescence quenching assay, D170A-SrtA. Format: binding. How it is done: as §1, §2

In a further data set the target is T3, SrtA (Staphylococcus aureus, UniProt Q2FV99).
T3 construct: 6xHis; made in house; host or cells: E. coli BL21 (DE3), plasmid pET28a-SrtA
As to the kind of experiment: Localized surface plasmon resonance (LSPR). Format: binding. How it is done: The interaction between Tax and SrtA was determined using an OpenSPR localized surface plasmon resonance (LSPR) instrument (Nicoya, Canada) at 25°C, as described previously ([Panneer Selvam et al., 2018]; [Song et al., 2019]). Briefly, SrtA proteins were captured on a COOH chip using a standard amine coupling system. A 200 μL aliquot of blocking buffer was added to rinse the sample ring and to remove any air. After a stable baseline had been achieved, the affinity between Tax and SrtA was measured by injecting 20, 40, 80, 160, or 320 μM Tax. The kinetic parameters of the binding reaction were calculated and visualized using TraceDrawer software ([Yang et al., 2011]).
FIGURE 4 Expression of SrtA in the presence of Tax and the interaction of different concentrations of Tax with SrtA. (A) Western blot analysis of SrtA protein from S. aureus treated with various concentrations of Tax and grayscale analysis of SrtA protein bands. (B) LSPR analysis verified the binding affinity of Tax with SrtA. Error bars represent means ± SD of three replicates. ***P < 0.001 calculated with a two-tailed Student’s t-test.

Data set [2] relates to surface-anchored SpA of S. aureus. As to the kind of experiment: FITC-IgG binding assay for staphylococcal protein A (SpA). In kind it is cell-based. The settings on record: Staphylococcus aureus, read-out: SpA fluorescence, relative activity % of the WT group. How it is done:
Bacterial cultures grown overnight were diluted 1:100 and cultured in an incubator at 37°C with Tax or DMSO to a concentration of 10^8 CFU/mL. The ΔsrtA mutant strain was assayed as a positive control. The bacteria were collected and washed three times in PBS. A 50 μL aliquot of bacterial culture was mixed with an equal volume of FITC-labeled rabbit anti-goat-IgG (1:200, Sigma, United States) then incubated in the dark for 1 h. The bacteria were then washed and suspended in PBS. A multimode microplate reader (Tecan, Spark 20M) was used to measure fluorescence intensity at 535 nm when illuminated at an excitation wavelength of 485 nm.
as §3

As for `O=C1c2c(O)cc(O)cc2OC(c2ccc(O)c(O)c2)C1O` (centres unmarked) [Tax, taxifolin], the “toxicity toward mammalian cells (HEK293)” value with HEK293 cells (200 μM) is “did not display toxicity”. Moreover, in the data set with HEK293 cells (at 24.53 ± 0.42 μM, 24 h), the “cytotoxicity toward HEK293 cells” value is “no significant cytotoxicity”. Further, the values for the Kd at Q172A-SrtA mutant, at D170A-SrtA mutant and at SrtA were 26 µM, 37.2 µM and 165 µM, respectively. The “biofilm biomass, % of the mass of the untreated control” value in data set [1] worked out at 29.91 ± 0.51%. For the same compound, the kon on SrtA (read-out: Ka) came to 22.3 M⁻¹ s⁻¹. In addition, the activity at 200 µM in data set [2] came to 36.1 ± 1.59%.
